The subject of one experiment is IL-2. Nature of the experiment: qPCR of IL-2 expression in stimulated Jurkat cells. Format: cell-based, human. As to conditions: PHA+PMA stimulation. As for the experimental part:
(§1) Evaluation of PD-1 and IL-2 expression: The effect of NU7441 on the expression of PD-1, a protein with immunosuppressant function, and IL-2 was examined in Jurkat cells following stimulation with PHA+PMA and treatment with the inhibitor NU7441. qPCR analysis was performed using primers specific for PD1 and IL-2 sequences.
A general note: Real-time PCR tracks product formation cycle by cycle.

The test system of a further experiment is PD-1. Nature of the experiment: qPCR of PD-1 expression in stimulated Jurkat cells. Format: cell-based, human. The note with it: PHA+PMA stimulation. The method, then: as §1

Turning to `C=CC[C@@H]1/C=C(\C)C[C@H](C)C[C@H](OC)[C@H]2O[C@@](O)(C(=O)C(=O)N3CCCC[C@H]3C(=O)O[C@H](/C(C)=C/[C@@H]3CC[C@@H](O)[C@H](OC)C3)[C@H](C)[C@@H](O)CC1=O)[C@H](C)C[C@@H]2OC` [FK506, Tacrolimus], the IL-2 expression entry in the experiment on IL-2 is “reduced”. In the experiment on PD-1, the “expression level of PD-1” value is given as “significantly reduce expression”.

The values above are taken from patent US20240245696A1, “INHIBITORS OF DNA PK AND USES THEREOF” (BioVentures, LLC, priority 2017, published 2024).
